From patent publication US20250282768A1 (Janssen Pharmaceutica NV, priority 2022, published 2025)

System: p-IKKa levels in L363 (NIK translocated multiple myeloma) cells
Assay: Assay 2: Effect of compounds on p-IKKa levels in L363 (NIK translocated multiple myeloma) cells
Type: cell-based
Conditions: Homo sapiens, L-363, 6 h, read-out: Assay 2 IC50 (nM), p-IKKa (Ser 176/180) in BAFF stimulated L363 cells with MG132, 6 h; average if tested more than once
How it was run: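 Read-out is p-IKKa Ser176/180 by AlphaLISA SureFire in lysates. Cells were BAFF-primed (250 ng/ml) overnight or left unstimulated, then exposed 6 h at 37 °C to compound with MG132 (10 μM), 0.3% DMSO. IC50 from sigmoidal curve fit, normalized between stimulated and unstimulated controls.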

Structure (SMILES) | IC50 [nM]
CN1CC[C@@](O)(c2cc(-c3cccc(-c4ccnc(N[C@H]5CCSC5)n4)n3)no2)C1=O (single isomer, unassigned) [Example 457, (R)-3-Hydroxy-1-methyl-3-(3-(6-(2-(((*S)-tetrahydrothiophen-3-yl)amino)pyrimidin-4-yl)pyridin-2-yl)isoxazol-5-yl)pyrrolidin-2-one] | 50 to 500
CN1CC[C@@](O)(c2cc(-c3cccc(-c4ccnc(N[C@@H]5CCSC5)n4)n3)no2)C1=O (single isomer, unassigned) [Example 458, (R)-3-Hydroxy-1-methyl-3-(3-(6-(2-(((*R)-tetrahydrothiophen-3-yl)amino)pyrimidin-4-yl)pyridin-2-yl)isoxazol-5-yl)pyrrolidin-2-one] | 50 to 500
CO[C@H](CNc1nccc(-c2cccc(-c3cc([C@]4(O)CCN(C)C4=O)on3)n2)n1)C(F)(F)F (single isomer, unassigned) [Example 462, (R)-3-Hydroxy-1-methyl-3-(3-(6-(2-(((*R)-3,3,3-trifluoro-2-methoxypropyl)amino)pyrimidin-4-yl)pyridin-2-yl)isoxazol-5-yl)pyrrolidin-2-one] | 50 to 500
CO[C@@H](CNc1nccc(-c2cccc(-c3cc([C@]4(O)CCN(C)C4=O)on3)n2)n1)C(F)(F)F (single isomer, unassigned) [Example 463, (R)-3-Hydroxy-1-methyl-3-(3-(6-(2-(((*S)-3,3,3-trifluoro-2-methoxypropyl)amino)pyrimidin-4-yl)pyridin-2-yl)isoxazol-5-yl)pyrrolidin-2-one] | 50 to 500
CO[C@H]1COCC[C@@H]1Nc1nccc(-c2cccc(-c3cc([C@]4(O)CCN(C)C4=O)on3)n2)n1 (stereo in doubt) [Example 355, (R)-3-Hydroxy-3-(3-(6-(2-(((trans)-3-methoxytetrahydro-2H-pyran-4-yl)amino)pyrimidin-4-yl)pyridin-2-yl)isoxazol-5-yl)-1-methylpyrrolidin-2-one] | > 500
CN1C(=O)[C@](O)(c2cc(-c3cccc(-c4ccnc(Nc5ccn(C)n5)n4)n3)no2)C[C@H]1C(F)(F)F [Example 1, (3R,5S)-3-Hydroxy-1-methyl-3-(3-(6-(2-((1-methyl-1H-pyrazol-3-yl)amino)pyrimidin-4-yl)pyridin-2-yl)isoxazol-5-yl)-5-(trifluoromethyl)pyrrolidin-2-one] | 50 to 500
CN1CC[C@@](O)(c2cc(-c3cc(C(F)(F)F)cc(-c4ccnc(Nc5ccn(C)n5)n4)n3)no2)C1=O [Example 2, (R)-3-Hydroxy-1-methyl-3-(3-(6-(2-((1-methyl-1H-pyrazol-3-yl)amino)pyrimidin-4-yl)-4-(trifluoromethyl)pyridin-2-yl)isoxazol-5-yl)pyrrolidin-2-one] | < 50
CN1CC(F)(F)[C@@](O)(c2cc(-c3cccc(-c4ccnc(Nc5cnn(C)c5)n4)n3)no2)C1=O [Example 3, (R)-4,4-Difluoro-3-hydroxy-1-methyl-3-(3-(6-(2-((1-methyl-1H-pyrazol-4-yl)amino)pyrimidin-4-yl)pyridin-2-yl)isoxazol-5-yl)pyrrolidin-2-one] | < 50
CN1CC[C@@](O)(c2cc(-c3cc(C(F)(F)F)cc(-c4ccnc(Nc5cnn(C)c5)n4)n3)no2)C1=O [Example 4, (R)-3-Hydroxy-1-methyl-3-(3-(6-(2-((1-methyl-1H-pyrazol-4-yl)amino)pyrimidin-4-yl)-4-(trifluoromethyl)pyridin-2-yl)isoxazol-5-yl)pyrrolidin-2-one] | < 50
[2H]C1([2H])N(C)C(=O)[C@](O)(c2cc(-c3cccc(-c4ccnc(Nc5cnn(C)c5)n4)n3)no2)C1([2H])[2H] [Example 5, (R)-3-Hydroxy-1-methyl-3-(3-(6-(2-((1-methyl-1H-pyrazol-4-yl)amino)pyrimidin-4-yl)pyridin-2-yl)isoxazol-5-yl)pyrrolidin-2-one-4,4,5,5-d4] | < 50
CN1C(=O)[C@](O)(c2cc(-c3cccc(-c4ccnc(Nc5cnn(C)c5)n4)n3)no2)C[C@H]1C(F)(F)F [Example 6, (3R,5S)-3-Hydroxy-1-methyl-3-(3-(6-(2-((1-methyl-1H-pyrazol-4-yl)amino)pyrimidin-4-yl)pyridin-2-yl)isoxazol-5-yl)-5-(trifluoromethyl)pyrrolidin-2-one] | 50 to 500
[2H]C1([2H])N(C)C(=O)[C@](O)(c2cc(-c3cccc(-c4ccnc(Nc5cnn(CC)c5)n4)n3)no2)C1([2H])[2H] [Example 7, (R)-3-(3-(6-(2-((1-Ethyl-1H-pyrazol-4-yl)amino)pyrimidin-4-yl)pyridin-2-yl)isoxazol-5-yl)-3-hydroxy-1-methylpyrrolidin-2-one-4,4,5,5-d4] | < 50
[2H]C1([2H])N(C)C(=O)[C@](O)(c2cc(-c3cccc(-c4ccnc(Nc5ccn(C)n5)n4)n3)no2)C1([2H])[2H] [Example 8, (R)-3-Hydroxy-1-methyl-3-(3-(6-(2-((1-methyl-1H-pyrazol-3-yl)amino)pyrimidin-4-yl)pyridin-2-yl)isoxazol-5-yl)pyrrolidin-2-one-4,4,5,5-d4] | < 50
COc1nn(C(CO)CO)cc1Nc1nccc(-c2cccc(-c3cc([C@]4(O)CCN(C)C4=O)on3)n2)n1 [Example 9, (R)-3-(3-(6-(2-((1-(1,3-Dihydroxypropan-2-yl)-3-methoxy-1H-pyrazol-4-yl)amino)pyrimidin-4-yl)pyridin-2-yl)isoxazol-5-yl)-3-hydroxy-1-methylpyrrolidin-2-one] | 50 to 500
CN1CCC(n2cc(Nc3nccc(-c4cccc(-c5cc([C@@]6(O)C(=O)N(C)CC6(F)F)on5)n4)n3)cn2)CC1 [Example 10, (R)-4,4-Difluoro-3-hydroxy-1-methyl-3-(3-(6-(2-((1-(1-methylpiperidin-4-yl)-1H-pyrazol-4-yl)amino)pyrimidin-4-yl)pyridin-2-yl)isoxazol-5-yl)pyrrolidin-2-one] | 50 to 500
CN1CC[C@@](O)(c2cc(-c3cccc(-c4ccnc(N[C@H]5CCOC5)n4)c3)no2)C1=O [Example 11, (R)-3-Hydroxy-1-methyl-3-(3-(3-(2-(((S)-tetrahydrofuran-3-yl)amino)pyrimidin-4-yl)phenyl)isoxazol-5-yl)pyrrolidin-2-one] | > 500
CN1CC[C@@](O)(c2cc(-c3cccc(-c4ccnc(N[C@@H]5CCOC5)n4)c3)no2)C1=O [Example 12, (R)-3-Hydroxy-1-methyl-3-(3-(3-(2-(((R)-tetrahydrofuran-3-yl)amino)pyrimidin-4-yl)phenyl)isoxazol-5-yl)pyrrolidin-2-one] | > 500
CN1CC[C@@](O)(c2cc(-c3cccc(-c4ccnc(N[C@H]5CC[C@H](O)C5)n4)c3)no2)C1=O [Example 13, (R)-3-Hydroxy-3-(3-(3-(2-(((1 S,3S)-3-hydroxycyclopentyl)amino)pyrimidin-4-yl)phenyl)isoxazol-5-yl)-1-methylpyrrolidin-2-one] | > 500
CN1CC[C@@](O)(c2cc(-c3cccc(-c4ccnc(N[C@H]5CC[C@@H](O)C5)n4)c3)no2)C1=O [Example 14, (R)-3-Hydroxy-3-(3-(3-(2-(((1 S,3R)-3-hydroxycyclopentyl)amino)pyrimidin-4-yl)phenyl)isoxazol-5-yl)-1-methylpyrrolidin-2-one] | > 500
CN1CC[C@@](O)(c2cc(-c3cccc(-c4ccnc(Nc5cnn6c5OCCC6)n4)c3)no2)C1=O [Example 15, (R)-3-(3-(3-(2-((6,7-Dihydro-5H-pyrazolo[5,1-b][1,3]oxazin-3-yl)amino)pyrimidin-4-yl)phenyl)isoxazol-5-yl)-3-hydroxy-1-methylpyrrolidin-2-one] | > 500
COc1cn(C)nc1Nc1nccc(-c2cccc(-c3cc([C@]4(O)CCN(C)C4=O)on3)c2)n1 [Example 16, (R)-3-Hydroxy-3-(3-(3-(2-((4-methoxy-1-methyl-1H-pyrazol-3-yl)amino)pyrimidin-4-yl)phenyl)isoxazol-5-yl)-1-methylpyrrolidin-2-one] | > 500
COc1nn(C)cc1Nc1nccc(-c2cccc(-c3cc([C@]4(O)CCN(C)C4=O)on3)c2)n1 [Example 17, (R)-3-Hydroxy-3-(3-(3-(2-((3-methoxy-1-methyl-1H-pyrazol-4-yl)amino)pyrimidin-4-yl)phenyl)isoxazol-5-yl)-1-methylpyrrolidin-2-one] | 50 to 500
CN1CC[C@@](O)(c2cc(-c3cccc(-c4ccnc(Nc5cnn6cccnc56)n4)c3)no2)C1=O [Example 18, (R)-3-Hydroxy-1-methyl-3-(3-(3-(2-(pyrazolo[1,5-a]pyrimidin-3-ylamino)pyrimidin-4-yl)phenyl)isoxazol-5-yl)pyrrolidin-2-one] | > 500
CN1CC[C@@](O)(c2cc(-c3cccc(-c4ccnc(N5CCCn6ncc(N)c65)n4)c3)no2)C1=O [Example 19, (R)-3-(3-(3-(2-(3-Amino-6,7-dihydropyrazolo[1,5-a]pyrimidin-4(5H)-)pyrimidin-4-yl)phenyl)isoxazol-5-yl)-3-hydroxy-1-methylpyrrolidin-2-one] | > 500
CN1CC[C@@](O)(c2cc(-c3cccc(-c4ccnc(Nc5cnn6c5NCCC6)n4)c3)no2)C1=O [Example 20, (R)-3-Hydroxy-1-methyl-3-(3-(3-(2-((4,5,6,7-tetrahydropyrazolo[1,5-a]pyrimidin-3-yl)amino)pyrimidin-4-yl)phenyl)isoxazol-5-yl)pyrrolidin-2-one] | > 500
CN1CC[C@@](O)(c2cc(-c3cccc(-c4ccnc(Nc5cnn(C)c5N)n4)c3)no2)C1=O [Example 21, (R)-3-(3-(3-(2-((5-Amino-1-methyl-1H-pyrazol-4-yl)amino)pyrimidin-4-yl)phenyl)isoxazol-5-yl)-3-hydroxy-1-methylpyrrolidin-2-one] | > 500
CN1CC[C@@](O)(c2cc(-c3cccc(-c4ccnc(Nc5cc6n(n5)CCOC6)n4)c3)no2)C1=O [Example 22, (R)-3-(3-(3-(2-((6,7-Dihydro-4H-pyrazolo[5,1-c][1,4]oxazin-2-yl)amino)pyrimidin-4-yl)phenyl)isoxazol-5-yl)-3-hydroxy-1-methylpyrrolidin-2-one] | > 500
